Reference: PubChem BioAssay (NCI)
Where “and” joins values, the source holds several entries; their conditions need not be identical. Equal values may be shown once.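 Where inhibition never reached the appropriate level, the endpoint shown equals the highest concentration tested. Otherwise, values were interpolated linearly from a five-concentration, 48-hour dose response in 96-well plates. Here, GI50 denotes the concentration required for 50% inhibition of growth. TGI is the concentration that stops growth completely.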 Where a SMILES comes first, the peptide text is derived from it. The star is where a group is joined. Boc = CC(C)(C)OC(=O)*; Bn = c1ccc(C*)cc1

Legend:
Test in all cases: NCI anticancer screen, dose series, 48 h
[1] = system: IGROV1 ovarian
[2] = system: 786-0 renal
[3] = system: SF-539 CNS
[4] = system: SK-OV-3 ovarian

CC1(Cc2cc3c(cc2C2(c4ccc([N+](=O)[O-])cc4)OCCO2)OCO3)OCCO1
TGI [1]: > 100 µM
TGI [2]: > 100 µM
TGI [3]: > 100 µM
TGI [4]: > 100 µM

O=C1OC(C2Cc3ccc4c(c3C2=O)CCCC4)c2ccccc21 (configuration not stated)
TGI [1]: > 100 µM
TGI [2]: > 100 µM
TGI [3]: 66.7 µM
TGI [4]: > 100 µM

CC[C@H]1C=CCC[C@@]2(C[C@@H]3CC[C@H]4[C@@H](C(=O)OCCCCCCCCCCCCCCCC(=O)N(CCCNC(C)=O)C[C@H](CCNC(C)=O)OC(C)=O)[C@@]5(CCC[C@@H](C)O5)NC(=[N+]34)N2)O1
TGI [1]: 2.66 µM
TGI [2]: 3.4 µM
TGI [3]: 2.87 µM
TGI [4]: 3.12 µM

Cc1ccccc1C1CC(=O)CC(c2ccccc2C)C12C(=O)NC(=S)NC2=O (configuration not stated)
TGI [2]: > 100 µM
TGI [3]: 48.9 µM
TGI [4]: > 100 µM

Cc1ccc2nc(-c3ccc(-c4nc5ccc(C)cc5o4)c(O)c3)oc2c1
TGI [2]: > 100 µM
TGI [3]: > 100 µM
TGI [4]: > 100 µM

Oc1ccc2ccccc2c1NCn1nc(CCCCCCCCc2nn(CNc3c(O)ccc4ccccc34)c(=S)o2)oc1=S
TGI [1]: > 100 µM
TGI [2]: > 100 µM
TGI [4]: > 100 µM

CC(CC(C)[C@H]1CCC2[C@H]3C(CC(=O)[C@@]21C)[C@@]1(C)CCC(O)C[C@H]1C[C@@H]3O)C(=O)O (some centres not stated)
TGI [1]: > 100 µM
TGI [2]: > 100 µM
TGI [3]: > 100 µM

CC(C)N(C(=O)C12C3(C(=O)C(C)(C)C)C4C5(C#N)C3C1(C(=O)C(C)(C)C)C5C42C(=O)C(C)(C)C)C(C)C (configuration not stated)
TGI [1]: > 100 µM
TGI [2]: > 100 µM
TGI [3]: > 100 µM

COc1cccc(N2C(=O)C3c4[nH]c5ccc(C)cc5c4C4CCC(C)CC4C3C2=O)c1 (configuration not stated)
TGI [1]: > 100 µM
TGI [2]: > 100 µM
TGI [3]: > 100 µM
TGI [4]: > 100 µM

Cc1ccc(S(=O)(=O)OI(O)CC(F)(F)F)cc1
TGI [1]: > 100 µM
TGI [2]: > 100 µM
TGI [3]: > 100 µM
TGI [4]: > 100 µM

N#CCN1CCN(CC#N)CCN(CC#N)CCN(CC#N)CC1
TGI [1]: > 100 µM
TGI [2]: > 100 µM
TGI [3]: > 100 µM
TGI [4]: > 100 µM

O=c1cc(-c2ccc3ccccc3c2)[nH]c2ncccc12
TGI [1]: > 100 µM
TGI [2]: > 100 µM
TGI [3]: 64.9 µM
TGI [4]: > 100 µM

CCC1(CC)C(=O)NN(C(=O)c2ccc(Cl)cc2)C1=O
TGI [1]: > 100 µM
TGI [2]: > 100 µM
TGI [4]: > 100 µM

Cc1ccc(C2=Nn3c(nc4sc5c(c4c3=O)CCCC5)SC2)cc1
TGI [1]: > 100 µM
TGI [2]: > 100 µM
TGI [3]: > 100 µM
TGI [4]: > 100 µM

CC(C)(C)OC(=O)NCC(=O)N(CCc1ccc(Cl)c(Cl)c1)CCN1CCCC1
TGI [1]: 31.5 µM
TGI [2]: 28 µM
TGI [3]: 32.8 µM
TGI [4]: 32.1 µM

CCOC(=O)CNC(=O)CNC(=O)CNC(=O)CNNc1c(OCc2ccccc2)c(=O)c1=O
TGI [1]: > 100 µM
TGI [2]: > 100 µM
TGI [4]: > 100 µM

CN(C(=O)c1cc2c(s1)sc1c(=O)n(C)c3ccccc3c12)c1ccccc1
TGI [1]: > 100 µM
TGI [2]: > 100 µM
TGI [3]: 59.8 µM
TGI [4]: > 100 µM

[O-]/[N+](=N/c1ncc(-c2ccccc2)cn1)c1ncc(-c2ccccc2)cn1
TGI [1]: > 100 µM
TGI [2]: > 100 µM
TGI [3]: > 100 µM
TGI [4]: > 100 µM

COCCNC1CCC(=O)c2[nH]c3ccccc3c21 (configuration not stated)
TGI [1]: > 100 µM
TGI [2]: > 100 µM
TGI [3]: > 100 µM

CCNC1=C(NC(=O)c2ccc(OC)cc2)C(=O)c2ccccc2C1=O
TGI [1]: > 100 µM
TGI [2]: > 100 µM
TGI [3]: > 100 µM
TGI [4]: > 100 µM

CC(=O)c1c2c(cc3c1CC1(C3)Cc3cc4c(c(C(C)=O)c3C1)CCCC4)CCCC2
TGI [1]: > 100 µM
TGI [2]: > 100 µM
TGI [3]: > 100 µM
TGI [4]: > 100 µM

CNC(=O)OCc1nc(N=[N+]=[N-])n(C)c1COC(=O)NC
TGI [1]: > 100 µM
TGI [2]: > 10 µM
TGI [3]: > 100 µM

C=CCN1C(=O)/C(=C/c2ccc(OC)cc2)N=C1SC1OC(COC(C)=O)C(OC(C)=O)C(OC(C)=O)C1OC(C)=O (configuration not stated)
GI50 [1]: 20.4 µM and 75.4 µM
TGI [1]: > 100 µM
TGI [2]: > 100 µM
GI50 [3]: 19.9 µM and 42.8 µM
TGI [3]: 44.5 µM and > 100 µM
TGI [4]: 36 µM and > 100 µM

O=C(/C=C/c1ccc(O)cc1)c1cc(-c2cc(CCC(=O)c3ccc(O)cc3O)ccc2O)c(O)cc1O
TGI [1]: > 50 µM
TGI [2]: > 50 µM
TGI [3]: 24.8 µM
TGI [4]: 42.6 µM

COc1ccc(C(c2cc(OC)c(OC)c(OC)c2)N2C(=O)CCC2C(=O)O)cc1 (configuration not stated)
TGI [1]: > 100 µM
TGI [2]: > 100 µM
TGI [3]: 52 µM
TGI [4]: > 100 µM

O=C(/C=C/c1ccccc1Br)c1ccccc1
TGI [1]: 9.91 µM
TGI [2]: 4.39 µM
TGI [3]: 15.6 µM
TGI [4]: 30.5 µM

CC1=NN(C(=O)CC(=O)Nc2ccc(Cl)cc2)C(=O)C1N=Nc1ccc(S(=O)(=O)c2ccc(N=NC3C(=O)N(C(=O)CC(=O)Nc4ccc(Cl)cc4)N=C3C)cc2)cc1 (configuration not stated)
TGI [1]: > 100 µM
TGI [2]: > 100 µM
TGI [3]: > 100 µM
TGI [4]: > 100 µM

CC(=O)c1sc2n(C)c(=O)c3ccccc3[n+]2c1C
TGI [1]: > 100 µM
TGI [2]: > 100 µM
TGI [3]: > 100 µM
TGI [4]: > 100 µM

COC(=O)/C=C1/OC(c2ccc(C)cc2C)=CC1=O
TGI [1]: 22 µM
TGI [2]: 24.2 µM
TGI [3]: 33 µM
TGI [4]: 33.1 µM

C=CC[C@@]12CCC(=O)C=C1CCCC2=O
TGI [1]: > 100 µM
TGI [2]: > 100 µM
TGI [3]: > 100 µM
TGI [4]: > 100 µM

CCOC(=O)C(C)c1nc2cc(C(F)(F)F)ccc2[nH]c1=O (configuration not stated)
TGI [2]: > 100 µM
TGI [3]: > 100 µM
TGI [4]: > 100 µM

O=c1[nH]c2cc3[nH]c(=O)c(=O)[nH]c3cc2[nH]c1=O
TGI [1]: > 100 µM
TGI [2]: > 100 µM
TGI [3]: > 100 µM
TGI [4]: > 100 µM

O=C1CC2(CCNCC2)C(=O)N1N1CCCCC1
TGI [1]: > 100 µM
TGI [2]: > 100 µM
TGI [3]: > 100 µM
TGI [4]: > 100 µM

CC(C(=O)O)C1Nc2ccccc2NC1=O (configuration not stated)
TGI [1]: > 100 µM
TGI [2]: > 100 µM
TGI [3]: > 100 µM
TGI [4]: > 100 µM

COc1cc(/C=C2\C(=O)N(c3ccc(NC(C)=O)cc3)C(c3ccccc3)S2(=O)=O)cc(OC)c1OC (configuration not stated)
TGI [1]: > 100 µM
TGI [2]: > 100 µM
TGI [3]: > 100 µM
TGI [4]: > 100 µM

COc1ccc2cc(/C=N\NC(=O)Nc3ccc([N+](=O)[O-])cc3)ccc2c1
TGI [1]: 23.2 µM
TGI [2]: 16.8 µM
TGI [3]: 18.3 µM
TGI [4]: 18.5 µM

O=C(c1ccc(Cl)c(Cl)c1)N(C(=O)N1CCN(c2ccccc2)CC1)S(=O)(=O)c1ccccc1
TGI [2]: > 100 µM
TGI [3]: > 100 µM
TGI [4]: 79.6 µM

COC(=O)C1Cc2c([nH]c3ccccc23)-c2[nH]c3ccccc3c2CC(NC(C)=O)C(=O)NCC(=O)NCC(=O)N1 (configuration not stated)
TGI [1]: > 100 µM
TGI [2]: > 100 µM
TGI [3]: > 100 µM
TGI [4]: > 100 µM

N/N=C(/CC(O)(C(F)(F)F)C(F)(F)F)c1ccccc1
TGI [1]: > 10 µM
TGI [2]: > 10 µM
TGI [3]: > 10 µM
TGI [4]: > 10 µM

CNc1cccc2c1C(C)C[C@]1(C)C(=O)Nc3ccccc3[C@H]21 (some centres not stated)
TGI [1]: > 100 µM
TGI [2]: 32.9 µM
TGI [3]: > 100 µM

COC(=O)C(CC(C)C)NC(=O)CNC(=O)C(Cc1ccc(OCc2ccccc2)cc1)NC(=O)C(COCc1ccccc1)NC(=O)OC(C)(C)C (configuration not stated) (Boc-S(Bn)Y(Bn)GL-OMe; configuration not given here)
TGI [1]: > 100 µM
TGI [2]: > 100 µM
TGI [3]: > 100 µM
TGI [4]: > 100 µM

N#CCCN(CCCN(C(=O)Nc1ccc(NC(=O)N(CCCN(CCC#N)C(N)=O)c2ccccc2)cc1)c1ccccc1)C(N)=O
TGI [2]: > 100 µM
TGI [3]: > 100 µM
TGI [4]: > 100 µM

O=C1O/C(=C(/Cl)c2c3ccccc3cc3ccccc23)c2ccccc21
TGI [1]: 71.2 µM
TGI [2]: 40.5 µM
TGI [3]: 47.8 µM
TGI [4]: > 100 µM

CCN(CC)c1ccc2cc(-c3csc(C)n3)c(=O)oc2c1
TGI [1]: > 100 µM
TGI [2]: > 100 µM
TGI [3]: > 100 µM
TGI [4]: > 100 µM

COc1ccc(OC)c([N+](=O)[O-])c1-c1nc2sc(C)c(C)n2c1/C=N/N=C(N)N
TGI [1]: > 100 µM
TGI [2]: > 100 µM
TGI [3]: > 100 µM

Cc1ccc(/C=C2\CCCCCC2=O)cc1
TGI [1]: > 100 µM
TGI [2]: > 100 µM
TGI [4]: > 100 µM

CC(C)(C)CN1[C@@H]2CCCC[C@H]2N(CC(C)(C)C)P1(=O)C(O)/C=C/c1ccccc1 (some centres not stated)
TGI [1]: > 100 µM
TGI [2]: > 100 µM
TGI [4]: > 100 µM

Cn1nc(S(N)(=O)=O)s/c1=N/S(=O)(=O)c1ccc(N)cc1
TGI [2]: > 100 µM
TGI [3]: > 100 µM
TGI [4]: > 100 µM

CC(C)(C)OC(=O)NC(Cc1ccc(OCc2ccccc2)cn1)C(=O)O (configuration not stated)
TGI [1]: > 100 µM
TGI [2]: > 100 µM
TGI [3]: > 100 µM

COc1cc(OC)c2nc(C)c3c(c2c1)OCC3
TGI [1]: > 100 µM
TGI [2]: > 100 µM
TGI [3]: > 100 µM

COC1=CC(=O)c2c(n[nH]c2CCNC(=O)OCc2ccccc2)C1=O
TGI [1]: 29 µM
TGI [2]: 31.3 µM
TGI [3]: 34.1 µM

Cc1cc(C)nc(NS(=O)(=O)c2ccc(Nc3nnc(/C=C/c4c(O)ccc5ccccc45)c(=O)n3N)cc2)n1
TGI [1]: > 100 µM
TGI [2]: 62.9 µM
TGI [4]: > 100 µM

CC(C)(C)OC(=O)NC(Cc1ccc(OCc2ccccc2)cn1)C(N)=O (configuration not stated)
TGI [1]: > 100 µM
TGI [2]: > 100 µM
TGI [3]: > 100 µM
